Experimental data from article PMC5862408, “CCR2 antagonism leads to marked reduction in proteinuria and glomerular injury in murine models of focal segmental glomerulosclerosis (FSGS)” (PLoS ONE, 2018).
Values joined by “and” are separate entries in the source; they are usually repeats but may differ in a detail not shown here. Identical values can stand only once.

Assays:
[1] = test system: 5/6 nephrectomized 129X1/SvJ mice; experiment: 5/6 nephrectomy model (comparison with ET1/AT1 dual inhibitor); format: in vivo, mouse
Protocol: Chemotaxis, calcium mobilization, and radio-ligand binding assays were conducted as previously described. Inhibition values (IC50) were calculated using non-linear regression with a one-site competition model (GraphPad Prism, GraphPad Software, La Jolla, CA). Urinary albumin was measured by ELISA (Bethyl Labs, Montgomery, TX). Urinary and serum creatinine was measured by LC-MS/MS at ChemoCentryx. The urinary albumin excretion rate (UAER) was calculated as micrograms per 24 h. Blood urea nitrogen (BUN) was measured by Antech Diagnostics (Morrisville, NC). Serum cystatin C was measured by ELISA (R&D Systems, Minneapolis, MN). The albumin to creatinine ratio (ACR) was calculated as micrograms of albumin per milligram of creatinine.
5/6 nephrectomy mice on the 129X1/SvJ background were obtained from Jackson Laboratories, and were received at ChemoCentryx after the surgery was performed at JAX. Under isoflurane anesthesia, two-thirds of the left kidney mass was removed at 5–6 weeks of age. Then, after 7 to 10 days, a right unilateral nephrectomy was performed. The mice were fed a standard chow and had free access to water. Three weeks after the 5/6 nephrectomy, the mice were grouped to ensure a similar starting UAER in each treatment group. CCX872 or its vehicle were dosed subcutaneously once daily formulated in 1% HPMC. The RAAS blocker Candesartan (AK Scientific, Union City, CA) and its vehicle were dosed orally once daily at 5 mg/kg formulated in water. Sparsentan, the dual-acting receptor antagonist for endothelin (A type) and angiotensin II receptors (Type 1) was synthesized at ChemoCentryx and was dosed orally twice daily at 90 mg/kg formulated in 1% HPMC. The mice were housed individually in metabolic cages for quantitative collection of urinary albumin and creatinine.
Fig 4 Relative efficacy of CCR2, RAAS, and endothelin receptor blockade in the 5/6 nephrectomy model as assessed by UACR (mg/mg). Mice underwent a 5/6 nephrectomy as described in Methods. Three weeks post-surgery the mice were randomized to the indicated groups for the study period of 4 weeks. Urine was collected for measurement of UACR at the indicated time points, as described in Methods. Error bars represent standard error of the mean. N = 10/group at week 1, and N = 6 at week 4. p values were calculated between each drug-treated group and vehicle treated animals (asterisk), or between the CCX872/RAAS blocker combination and RAAS blocker alone (octothorpe) using student’s t-test (GraphPad Prism).

patients with FSGS = test system: patients with FSGS; design: method as in announced by Retrophin; conditions: 8-week time point, 109 patients with FSGS, compared to irbesartan; ref announced by Retrophin; cited from earlier work
[2] = individual mice, listed as ET1/AT1 Dual

CCCCC1=NC2(CCCC2)C(=O)N1Cc1ccc(-c2ccccc2S(=O)(=O)Nc2noc(C)c2C)c(COCC)c1 [ET1/AT2 Dual Blocker, Sparsentan]
UAER ([1]; Week 1, mean ± SEM): 2.64 ± 0.75, p=0.036 mg/day | UAER ([1]; Week 2, mean ± SEM): 1.54 ± 2.15, p=0.01 mg/day | UAER ([1]; Week 4, mean ± SEM): 1.15 ± 1.47, p=0.001 mg/day | UACR (mg/mg) at Week 1 [1, 2]: 1.081 mg/mg and 2.162 mg/mg and 2.864 mg/mg and 2.81 mg/mg and 3.047 mg/mg and 2.101 mg/mg and 2.214 mg/mg and 0.6904 mg/mg and 5.004 mg/mg | UACR (mg/mg) at Week 4 [1, 2]: 2.388 mg/mg and 0.4973 mg/mg and 0.675 mg/mg and 0.2626 mg/mg and 0.5926 mg/mg and 2.095 mg/mg and 0.7726 mg/mg | UAER (mg/day) at Week 1 [1, 2]: 0.8511 mg/day and 1.523 mg/day and 1.648 mg/day and 2.037 mg/day and 2.769 mg/day and 1.544 mg/day and 1.531 mg/day and 0.6428 mg/day and 5.6 mg/day | UAER (mg/day) at Week 2 [1, 2]: 1.304 mg/day and 1.518 mg/day and 4.44 mg/day and 2.237 mg/day and 1.797 mg/day and 4.071 mg/day and 1.476 mg/day and 0.485 mg/day and 1.88 mg/day | UAER (mg/day) at Week 4 [1, 2]: 1.009 mg/day and 1.391 mg/day and 0.6452 mg/day and 0.283 mg/day and 0.9648 mg/day and 0.8066 mg/day and 1.065 mg/day | UACR reduction vs vehicle ([1]; week one): 93.5% | UACR ([1]; week one, mean ± SEM, CCX872 90 mg/kg s.c. once daily, RAAS blocker 5 mg/kg orally once daily, Sparsentan 90 mg/kg orally twice daily): 2.44 ± 0.42 mg/mg | proteinuria (primary endpoint) (patients with FSGS): statistically significant reduction in proteinuria as compared to irbesartan
